Measured values taken from US8685436B2, “Use of hydroxyflavanones for masking bitter taste” (Symrise AG, priority 2001, dated 2014).
Where a name gives a salt, the structure may show the parent alone.

What was measured:
[1] = Masking the bitter taste of a β-lactam antibiotic, difference testing and bitter intensity rating by 7 testers; type: in vivo
Excerpt: A solution of Faropenem Daloxate ([5R-[3(R*),5α,6α(R*)]]-6-(1-hydroxyethyl)-7-oxo-3-(tetrahydro-2-furanyl)-4-thia-1-azabicyclo[3.2.0]hept-2-ene-2-carboxylic acid (5-methyl-2-oxo-1,3-dioxol-4-yl)methyl ester, CAS No. 141702-36-5, 0.1% by weight in water, sample 1) and a mixture of Faropenem Daloxate+homoeriodictyol disodium salt (each 0.1% by weight in water, sample 2) were made up. A group of 7 testers were each given 3 samples for difference testing. 4 testers received sample 1 as a duplicate sample, 3 testers received sample 2 as a duplicate sample. The samples were tasted in differing orders. Of 7 testers, 7 correctly identified the individual sample. The average bitter intensity of sample 1 was rated 5, that of sample 2 was rated 2 (scale 1 to 5).

[2] = relatively high concentrations (450 ppm); cited from earlier work
[3] = Debittering black tea, bitterness rated by an expert group; type: in vivo; details: Tea sample 2 + 0.05% homoeriodictyol disodium salt; scale 1 just perceptibly bitter, 5 very bitter; tea sample 2 alone rated 5
Method: Two different types of black tea were brewed using boiling water (3 g of tea to 100 ml, allowed to infuse for 3 min, filter) and were then tasted by an expert group. The bitterness was rated using a scale of 1 to 5 (1 just perceptibly bitter, 5 very bitter).

## Cc1oc(=O)oc1COC(=O)C1=C([C@H]2CCCO2)S[C@@H]2[C@@H]([C@@H](C)O)C(=O)N12 (relative stereo) [Faropenem Daloxate, [5R-[3(R*),5α,6α(R*)]]-6-(1-hydroxyethyl)-7-oxo-3-(tetrahydro-2-furanyl)-4-thia-1-azabicyclo[3.2.0]hept-2-ene-2-carboxylic acid (5-methyl-2-oxo-1,3-dioxol-4-yl)methyl ester]
[1]; sample 1: Faropenem Daloxate alone, 0.1% by weight in water
  average bitter intensity (scale 1 to 5): 5

## COc1ccc(OC(C)C(=O)[O-])cc1.[Na+] (stereo not shown) [Lactisol, 2(-4-Methoxyphenoxy)propionic acid sodium salt]
[2]
  bitter-reducing effect: weak bitter-reducing effect

## COc1cc(C2CC(=O)c3c(O)cc(O)cc3O2)ccc1O (stereo not shown) [homoeriodictyol disodium salt, 2-(4-hydroxy-3-methoxyphenyl)-5,7-dihydroxychroman-4-one]
[1]; sample 2: Faropenem Daloxate + homoeriodictyol disodium salt, each 0.1% by weight in water
  average bitter intensity (scale 1 to 5): 2
[3]
  Rating (1–5) of bitterness: 2
